Data reported in US20110189297A1, “STABLE SOLID ORAL DOSAGE CO-FORMULATIONS” (Sequicia Pharmaceuticals, priority 2008, published 2011).

How the values were obtained:
[1] = Dissolution study of hand-filled capsules in simulated gastric fluid, HPLC; format: physicochemical; details: capsule in 500 mL simulated gastric fluid
Protocol: Commercially available 200 mg Reyataz hard gelatin capsules (lot number 6E3004B) were emptied by hand to create a stockpile of Atazanavir (ATV) commercial powder. This commercially available 200 mg Reyataz capsule contains 200 mg ATV as Atazanavir sulphate plus 178 mg of excipients (crospovidone, lactose monohydrate and magnesium stearate) for a total weigh to of 378 mg. 189 mg of the stockpiled commercial powder (equivalent to 100 mg Atazanavir) was blended by tumbling in a glass vial with 100 mg of the spray-dried amorphous dispersion (SDD) of Compound II/EUDRAGIT L-100 (EL-100) where the Compound II:EL100 ratio was 1:1 (produced by Hovione FarmaCientia) and filled by hand into “0” hard gelatin capsules. Therefore, each hand-filled “0” hard gelatin capsule contained 100 mg ATV, […] of Compound II:EL100 (1:1) SDD and 89 mg of excipients. These capsules were dropped into 500 mL of simulated gastric fluid and the amounts of Compound II and ATV in the resulting suspension was determined by HPLC (see Table 1 and FIG. 1).

[2] = test system: CYP3A; details: human liver microsomes, in vitro; cited from earlier work
[3] = Inherent anti-retroviral activity
[4] = Pharmacokinetic study in beagle dogs, oral dry powder in capsules; format: in vivo
Protocol: A pharmacokinetic study was performed in beagle dogs to evaluate the performance of the oral dosage formulation prepared in Example 1 above. […] Both plasma levels and duration of exposure was increased.
The plasma exposure of the compound of Formula II from Compound II:EL100 (1:1) SDD powder alone was compared to co-administration with Atazanavir powder (FIG. 3). The ratio of the AUCs from mean plasma concentrations was 2.5, but the differences among individual animal was not statistically significant. The apparent increase in mean Compound II exposure came mostly later in the time course, after 8 hours.

ratio of the AUCs from mean plasma concentrations of Compound II ([4]; 10 mg/kg Compound II from Compound II:EL100 (1:1) SDD with 20 mg/kg Atazanavir vs alone)	Cmax of Compound II, change on co-administration ([4]; Compound II:EL100 (1:1) SDD with Atazanavir vs alone)	% of maximal Compound II Conc. ([1]; 0 min)	% of maximal Compound II Conc. ([1]; 5 min)	% of maximal Compound II Conc. ([1]; 10 min)	% of maximal Compound II Conc. ([1]; 15 min)	% of maximal Compound II Conc. ([1]; 20 min)	% of maximal Compound II Conc. ([1]; 25 min)	% of maximal Compound II Conc. ([1]; 30 min)	Structure (SMILES)	% of maximal ATV Conc. ([1]; 0 min)	% of maximal ATV Conc. ([1]; 5 min)	% of maximal ATV Conc. ([1]; 10 min)	% of maximal ATV Conc. ([1]; 15 min)	% of maximal ATV Conc. ([1]; 20 min)	% of maximal ATV Conc. ([1]; 25 min)	% of maximal ATV Conc. ([1]; 30 min)	metabolising enzyme [2]	inherent anti-retroviral activity [3]
									COC(=O)N[C@H](C(=O)N[C@@H](Cc1ccccc1)[C@@H](O)CN(Cc1ccc(-c2ccccn2)cc1)NC(=O)[C@@H](NC(=O)OC)C(C)(C)C)C(C)(C)C.O=S(=O)(O)O [Atazanavir, Atazanavir sulfate, reference compound]	0%	88.9%	93.4%	100.0%	99.4%	99.1%	97.9%	metabolized by CYP3A	
2.5	slightly increased	0%	27.6%	61.9%	54.5%	88.2%	89.8%	100.0%	CO[C@H](CN(CC(C)C)S(=O)(=O)c1ccc2occc2c1)[C@H](Cc1ccccc1)NC(=O)OC(C)(C)C [Compound II]									no inherent anti-retroviral activity
